From PubChem BioAssay (NCI)
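Grown in 96-well plates, cells were treated for 48 hours with each compound at five concentrations. Insufficient inhibition: endpoint recorded as highest concentration tested. GI50 = concentration required for 50% inhibition of growth. TGI is the concentration that stops growth completely.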

Legend:
Experiment in all cases: NCI tumour cell line growth inhibition, 48 h
[1] = tested on: 786-0 renal
[2] = tested on: HCT-15 colon
[3] = tested on: MALME-3M melanoma
[4] = tested on: NCI-H226 lung
[5] = tested on: SK-MEL-2 melanoma
[6] = tested on: SW-620 colon
[7] = tested on: UO-31 renal

SMILES: CCCN(CCCCC(NC(C)=O)C(=O)NCc1ccccc1)C(=O)NC (stereo unspecified)
- TGI [1]: > 100 µM
- TGI [2]: > 100 µM
- TGI [3]: > 100 µM
- TGI [4]: > 100 µM
- TGI [5]: > 100 µM
- TGI [6]: > 100 µM
- TGI [7]: > 100 µM

SMILES: Cn1nnnc1[N-]Cc1ccccc1.[Au+].c1ccc([PH+](c2ccccc2)c2ccccc2)cc1
- GI50 [1]: 1.71 µM
- TGI [1]: 3.37 µM
- GI50 [2]: 2.53 µM
- TGI [2]: 9.18 µM
- GI50 [3]: 1.64 µM
- TGI [3]: 3.39 µM
- GI50 [4]: 8.49 µM
- TGI [4]: 29.7 µM
- GI50 [5]: 2.98 µM
- TGI [5]: 9.45 µM
- GI50 [6]: 2.19 µM
- TGI [6]: 4.92 µM
- GI50 [7]: 13 µM
- TGI [7]: 25.7 µM

SMILES: COC(=O)/C(=N/NC(C)(C)C)C(C(=O)C=C(C)C)C(=O)C(=O)Nc1ccc(Cl)cc1C (stereo unspecified)
- TGI [1]: > 100 µM
- TGI [2]: > 100 µM
- TGI [3]: > 100 µM
- TGI [4]: > 100 µM
- TGI [5]: > 100 µM
- TGI [6]: > 100 µM
- TGI [7]: > 100 µM

SMILES: CCOC(=O)c1c2ccc(/C=C/C(=O)OC)ccc-2c(C(=O)OCC)c1N
- TGI [1]: > 100 µM
- TGI [2]: > 100 µM
- TGI [3]: > 100 µM
- TGI [4]: > 100 µM
- TGI [5]: > 100 µM
- TGI [6]: > 100 µM
- TGI [7]: > 100 µM

SMILES: CC(SC1=CC(=O)c2c(O)ccc(O)c2C1=O)C(=O)O (stereo unspecified)
- TGI [1]: 56.8 µM
- TGI [2]: > 55.3 µM
- TGI [3]: > 64.6 µM
- TGI [4]: > 100 µM
- TGI [5]: > 100 µM
- TGI [6]: > 55.6 µM
- TGI [7]: > 75.4 µM

SMILES: O=C1c2cccc3cc([N+](=O)[O-])cc(c23)C(=O)N1CCCN1CCN(CCCN2C(=O)c3cccc4cc([N+](=O)[O-])cc(c34)C2=O)CC1
- TGI [1]: 5.55 µM
- TGI [2]: > 100 µM
- TGI [3]: 25.3 µM
- TGI [4]: 1.37 µM
- TGI [5]: 5.34 µM
- TGI [6]: > 100 µM
- TGI [7]: 1.01 µM

SMILES: [Cl][Sn]([c]1ccccc1)[c]1ccccc1
- GI50 [1]: 3.79 µM
- TGI [1]: 12.8 µM
- GI50 [2]: 4.48 µM
- TGI [2]: 18 µM
- GI50 [3]: 2.19 µM
- TGI [3]: 4.66 µM
- GI50 [4]: 15.8 µM
- TGI [4]: 29.6 µM
- GI50 [5]: 2.65 µM
- TGI [5]: 11.9 µM
- GI50 [6]: 1.95 µM
- TGI [6]: 4.49 µM
- GI50 [7]: 17.2 µM
- TGI [7]: 30.9 µM

SMILES: Cn1cc(NC(=O)c2cc(NC(=O)CCCCCC(=O)Nc3cc(C(=O)Nc4cc(C(=O)NCCC(=N)N)n(C)c4)n(C)c3)cn2C)cc1C(=O)NCCC(=N)N
- TGI [1]: > 100 µM
- TGI [2]: > 100 µM
- TGI [3]: > 100 µM
- TGI [6]: > 100 µM
- TGI [7]: > 100 µM

SMILES: CCCN(CCC)c1c([N+](=O)[O-])cc(S(N)(=O)=O)cc1[N+](=O)[O-]
- TGI [1]: 30.4 µM
- TGI [2]: 32.2 µM
- TGI [3]: 33 µM
- TGI [4]: 42.7 µM
- TGI [5]: 30.5 µM
- TGI [6]: 36 µM
- TGI [7]: 34.8 µM

SMILES: c1cc2c(cnc3cscc32)s1
- TGI [1]: > 100 µM
- TGI [2]: > 100 µM
- TGI [3]: > 100 µM
- TGI [4]: > 100 µM
- TGI [5]: > 100 µM
- TGI [6]: > 100 µM
- TGI [7]: > 100 µM

SMILES: COc1cccc2c(=O)c3c(sc12)c(NCCCN)nc1ccccc13
- GI50 [1]: 1.65 µM
- TGI [1]: 3.14 µM
- GI50 [2]: 1.32 µM
- TGI [2]: 2.7 µM
- GI50 [3]: 1.58 µM
- TGI [3]: 2.99 µM
- GI50 [4]: 1.52 µM
- TGI [4]: 3.15 µM
- GI50 [5]: 2 µM
- TGI [5]: 4.15 µM
- GI50 [6]: 1.3 µM
- TGI [6]: 2.81 µM
- GI50 [7]: 0.832 µM
- TGI [7]: 2.18 µM

SMILES: CCOC(OC1=C(C#N)CCC1)C(CC)[Se]c1ccccc1 (stereo unspecified)
- TGI [1]: 28.2 µM
- TGI [2]: > 100 µM
- TGI [3]: 66.7 µM
- TGI [4]: 53.4 µM
- TGI [5]: 80.8 µM
- TGI [7]: 73.6 µM

SMILES: CC(C)(C)C([O-])=C1C(=O)c2ccccc2C1=O.CC(C)(C)C([O-])=C1C(=O)c2ccccc2C1=O.CC[O-].CC[O-].[Ti+4]
- GI50 [1]: 47.2 µM
- TGI [1]: > 100 µM
- GI50 [2]: 29.5 µM
- TGI [2]: > 100 µM
- GI50 [3]: 17.3 µM
- TGI [3]: 38.5 µM
- GI50 [4]: 56.7 µM
- TGI [4]: > 100 µM
- GI50 [5]: 25.8 µM
- TGI [5]: 85.2 µM
- GI50 [6]: 25.5 µM
- TGI [6]: > 100 µM
- GI50 [7]: 19.1 µM
- TGI [7]: 44.5 µM

SMILES: Cc1c2ncccc2c(C)c2c1[nH]c1ccccc12
- TGI [1]: 23.2 µM
- TGI [2]: 54.3 µM
- TGI [3]: 30.6 µM
- TGI [4]: 35.9 µM
- TGI [5]: 41.4 µM
- TGI [6]: 28 µM

SMILES: CC(=O)O/C(C)=C\C(=O)O/N=C(\N)c1ccc(C)cc1
- TGI [1]: > 100 µM
- TGI [3]: 71.5 µM
- TGI [4]: 92.9 µM
- TGI [5]: 72.3 µM
- TGI [6]: > 100 µM
- TGI [7]: > 100 µM

SMILES: C=CCN(N=O)C(=O)N(CCC)CCCC(NC(C)=O)C(=O)NCc1ccccc1 (stereo unspecified)
- TGI [1]: > 100 µM
- TGI [2]: > 100 µM
- TGI [3]: > 100 µM
- TGI [5]: > 100 µM
- TGI [6]: > 100 µM
- TGI [7]: > 100 µM

SMILES: COc1cc2ccc3c4cc(OC)c(OCc5ccccc5)cc4cnc3c2cc1OC
- TGI [1]: > 100 µM
- TGI [3]: > 100 µM
- TGI [5]: > 100 µM
- TGI [6]: > 100 µM
- TGI [7]: > 100 µM

SMILES: COc1ccc2c(C3(O)CCNCC3)c[nH]c2c1
- TGI [1]: > 100 µM
- TGI [2]: > 100 µM
- TGI [3]: > 100 µM
- TGI [5]: > 100 µM
- TGI [6]: > 100 µM
- TGI [7]: > 100 µM

SMILES: c1c[nH]c(Cc2ncc(Cc3cnc[nH]3)[nH]2)n1
- TGI [1]: 65.8 µM
- TGI [2]: > 100 µM
- TGI [3]: > 100 µM
- TGI [4]: 46.3 µM
- TGI [5]: > 100 µM
- TGI [6]: > 100 µM

SMILES: CC(C)(C)N=CN1CCC(C(c2ccccc2)c2ccccc2)CC1
- TGI [1]: > 100 µM
- TGI [2]: > 100 µM
- TGI [3]: 35.6 µM
- TGI [5]: > 100 µM
- TGI [6]: > 100 µM
